From US20150150266A1, “PESTICIDE COMPOUNDS, USE THEREOF AND METHOD OF PROTECTION OF PLANTS” (AGRA GROUP, A.S., priority 2012, published 2015)
Marks after values point to notes of the source that are not given here.

Assays:
Triticum aestivum L. = assay: Field trial with crops, foliar spraying at BBCH 62; assay type: in vivo; details: for Yield / Yield, % of the control: foliar spraying of wettable powder A; for Yield, % of the control: control = water
Method: (§1) The experimental field was chosen in a warm region suitable for beet cultivation, with sufficient precipitation, soil type was brown earth. The plants were treated using a common agrotechnology, with the exception of the application of fungicidal protection. […] Water was used as the negative control.
(§2) At the end of the vegetative season, the crops were harvested and the yield was determined.

Hordeum vulgare L. = assay: Field trial with crops, foliar spraying at BBCH 62; assay type: in vivo; details: for Yield / Yield, % of the control: foliar spraying of wettable powder A; for Yield, % of the control: control = water
Method: as §1, §2

Penicillium expansum = assay: Fungal mycelium growth inhibition assay (agar dilution); assay type: cell-based; details: 7 days at 21° C.
Method: (§3) The assay for inhibitory activity of compounds of general formula (I) to radial growth and morphological effects to mycelia was carried out in agar by a multiple dilution method. The compound was diluted to concentrations shown in the Table in potato dextrose agar prepared in accordance with manufacturer's instructions. Petri dishes were filled with the thus prepared agar and aseptically inoculated with a disc of the diameter of 0.4 cm cut from a 7-day agar culture of the respective fungus. Controls were prepared in an analogous manner, using sterile distilled water instead of compound of general formula (I). The Petri dishes were incubated for 7 days at 21° C. and then the diameter of the colonies was measured. The percentage of inhibition of radial growth of the respective fungus was calculated according to the following equation: inhibition [%]=(DC-DT)/DC×100, wherein DC is the diameter of control colony and DT is the diameter of the colony grown on the agar containing the respective amount of compound of general formula (I). Standard deviation corresponds to averages from 3 replications.
(§4) The compound Cu2SO3.CuSO3.2H2O inhibited the growth of all tested mycelia (Table 1). Individual micelia have shown a variation in the sensitivity to the compound and concentration dependency on the fungicide dose was observed.

Aspergillus fumigatus = assay: as above; assay type: cell-based; details: 7 days at 21° C.
Method: as §3, §4

Aspergillus flavus = assay: as above; assay type: cell-based; details: 7 days at 21° C.
Method: as §3, §4

Fusarium verticillioides = assay: as above; assay type: cell-based; details: 7 days at 21° C.
Method: as §3, §4

[1] = test system: Penicillium brevicompactum; assay: as above; assay type: cell-based; details: 7 days at 21° C.
Method: as §3, §4

Fusarium oxysporum = assay: as above; assay type: cell-based; details: 7 days at 21° C.
Method: as §3, §4

O.O.O=S([O-])[O-].O=S([O-])[O-].[Cu+2].[Cu+].[Cu+] [Cu2SO3•CuSO3•2H2O, Cu2SO3.CuSO3.2H2O (Chevreul's salt)]
Yield (Triticum aestivum L.; 2010, 125 g/ha): 7.34 t/ha | Yield, % of the control (Triticum aestivum L.; 2010, 125 g/ha): 104.7% | Yield (Triticum aestivum L.; 2011, 125 g/ha): 8.45 t/ha | Yield, % of the control (Triticum aestivum L.; 2011, 125 g/ha): 108.1% | Yield (Triticum aestivum L.; 2011, 625 g/ha): 8.60 t/ha | Yield, % of the control (Triticum aestivum L.; 2011, 625 g/ha): 110.1% | Phytotoxic effects (Triticum aestivum L.; 2011, high dose 625 g/ha): No phytotoxic effects were observed even at this dose | Occurrence of fusarioses or other fungal diseases (Triticum aestivum L.; field trial, doses of Table 3): neither occurrence of fusarioses or other fungal diseases | Phytotoxic effects (Triticum aestivum L.; field trial, doses of Table 3): No phytotoxic effects were observed | Yield (Hordeum vulgare L.; 2011, 125 g/ha): 8.65 t/ha | Yield, % of the control (Hordeum vulgare L.; 2011, 125 g/ha): 103.2% | Yield (Hordeum vulgare L.; 2011, 625 g/ha): 8.73 t/ha | Yield, % of the control (Hordeum vulgare L.; 2011, 625 g/ha): 104.2% | Phytotoxic effects (Hordeum vulgare L.; 2011, high dose 625 g/ha): No phytotoxic effects were observed even at this dose | Occurrence of fusarioses or other fungal diseases (Hordeum vulgare L.; field trial, doses of Table 3): neither occurrence of fusarioses or other fungal diseases | Phytotoxic effects (Hordeum vulgare L.; field trial, doses of Table 3): No phytotoxic effects were observed | Percentage of radial growth inhibition (Penicillium expansum; 0.3 mg/mL agar): 98.37 ± 0.05% | Percentage of radial growth inhibition (Penicillium expansum; 0.4 mg/mL agar): 96.75 ± 0.05% | Percentage of radial growth inhibition (Penicillium expansum; 0.5 mg/mL agar): 100.00 ± 0.00% | Percentage of radial growth inhibition (Aspergillus fumigatus; 0.3 mg/mL agar): 100.00 ± 0.00% | Percentage of radial growth inhibition (Aspergillus fumigatus; 0.4 mg/mL agar): 100.00 ± 0.00% | Percentage of radial growth inhibition (Aspergillus fumigatus; 0.5 mg/mL agar): 100.00 ± 0.00% | Percentage of radial growth inhibition (Aspergillus flavus; 0.3 mg/mL agar): 97.67 ± 0.05% | Percentage of radial growth inhibition (Aspergillus flavus; 0.4 mg/mL agar): 98.84 ± 0.05% | Percentage of radial growth inhibition (Aspergillus flavus; 0.5 mg/mL agar): 100.00 ± 0.00% | Percentage of radial growth inhibition (Fusarium verticillioides; 0.3 mg/mL agar): −2.81 ± 0.00% ^2) | Percentage of radial growth inhibition (Fusarium verticillioides; 0.4 mg/mL agar): 19.10 ± 0.16% ^2) | Percentage of radial growth inhibition (Fusarium verticillioides; 0.5 mg/mL agar): 30.90 ± 0.00% ^2) | Percentage of radial growth inhibition ([1]; 0.3 mg/mL agar): 77.78 ± 0.09% | Percentage of radial growth inhibition ([1]; 0.4 mg/mL agar): 95.24 ± 0.00% | Percentage of radial growth inhibition ([1]; 0.5 mg/mL agar): 100.00 ± 0.00% | Percentage of radial growth inhibition (Fusarium oxysporum; 0.3 mg/mL agar): 6.72 ± 0.05% ^1) | Percentage of radial growth inhibition (Fusarium oxysporum; 0.4 mg/mL agar): 59.70 ± 0.16% ^1) | Percentage of radial growth inhibition (Fusarium oxysporum; 0.5 mg/mL agar): 97.76 ± 0.00%
